The text below walks through data of patent US10376531B2, “Substituted-6,8-dioxabicyclo[3.2.1]octane-2,3-diol compounds as targeting agents of ASGPR” (Pfizer Inc., priority 2014, dated 2019).

This test has as its target Biotinylated ASGPR (ASGPr H1 wild type) (Homo sapiens (Human), UniProt P07306). In words: Surface plasmon resonance (SPR) binding assay. The settings on record: Biacore 3000, 25° C, immobilized biotinylated ASGPR, each run separately reported or n and standard deviation noted, steady state fit for compounds and single conjugates, kinetic fit for multimeric conjugates. On the procedure: Preparation of Biotinylated ASGPR:
ASGPr H1 wild type was expressed as an insoluble inclusion body (IB) in E. coli. The cell pellet was re-suspended in TBS buffer pH 8.0 with 0.1 mg/mL lysozyme+25 microg/mL DNase+10 microg/mL RNase+10 mM MgCl2 and stirred on ice until well blended. The mixture was passed through a microfluidizer twice and centrifuged 30 minutes at 30,000×g. The resultant IB pellet was washed with TBS buffer pH 8.0+3M urea and centrifuged and this process was repeated three additional times with water. The IB pellet was
solubilized in 10 mM Tris+8M urea+100 mM β-mercaptoethanol (pH 8.5), stirred for approximately 20 minutes, then centrifuged to discard any precipitate. For the following manipulations, “buffer T” refers to 20 mM Tris+0.5 M NaCl+25 mM CaCl2. The supernatant was diluted to approximately 0.5 mg/mL in buffer T+2 mM β-mercaptoethanol+8M urea (pH 8.0), then dialysed vs. 8-10× excess volume of buffer T+2 mM β-mercaptoethanol+2 M urea (pH 8.0) overnight at 4° C. Dialysis was repeated in buffer T+1 mM β-mercaptoethanol+1 M urea (pH 8.0) for approximately 24 h at 4° C. with several volume changes with a final dialysis vs. buffer T+5 mM GSH+1 mM GSSG (pH 7.5) with 3 volume changes. The resulting sample was centrifuged and the supernatant was loaded onto an N-acetyl-D-galactosamine agarose packed Pharmacia XK 26 column, equilibrated in buffer T+2 mM TCEP (pH 8.0). The column was washed with this buffer until baseline was re-established. The bound protein was eluted with 20 mM Tris+0.5 M NaCl+2 mM TCEP+2 mM EDTA (pH 8.0). The final yield was approximately 50 mg from 5 L (70 wgm.) E. coli cell pellet. While BSA has one cysteine (Cys34) not engaged in disulfide bonding, this thiol group is often blocked as a mixed disulfide with small thiols such as cysteine, or as the sulfenic acid by aerobic oxidation. […] Mild disulfide reduction conditions were chosen so as not to disrupt buried intra-strand (solvent inaccessible) crosslinks. Thus, immediately prior to biotinylation, the ASGPR sample was first incubated with 1 mM TCEP to ensure that the sample contained a single free thiol. The protein was reacted with a 19-fold molar excess of Pierce Maleimide-PEG2-biotin reagent in PBS overnight at 4° C. Excess biotin was removed from the sample using either PD-10 columns (GE Healthcare) or Zeba Spin Desalting columns (Thermo/Pierce) using manufacturer protocols. LC-MS analysis of the product verified the presence of a single mass with addition of 525 amu consistent with the molecular weight of the maleimide adduct. […] No such outcomes were observed. […] SPR Binding Measurements:
All SPR measurements with compounds were performed using a Biacore 3000 (GE Healthcare) at 25° C. Biotinylated ASGPR was immobilized typically at 2000-3000 resonance units (Ru) using either SA sensor chips (GE Healthcare) or custom sensor chips with Neutravidin (Pierce Biochemical) immobilized by standard amine coupling to CM5 sensor chips (GE Healthcare). The running buffer was HBS (10 mM HEPES, 150 mM NaCl), 20 mM CaCl2, 0.01% p20, 3% DMSO or 50 mM tris, 150 mM NaCl, 50 mM CaCl2), 0.01% p20, 3% DMSO pH 7.5. Compounds were diluted into running buffer at a concentration of 900 uM and serially diluted 3 fold to 3.7 uM. Compound solutions were injected at 50 ul/min for 1 min followed by a 1 min dissociation in duplicate for each concentration. For the multimeric conjugates (dimers, trimers), the conjugates were diluted in running buffer to concentrations of 100 nM or 10 nM and serially diluted. Conjugates were injected for 2 min and off rates were detected for 300 or 600 sec. After completion of off phase data the compounds were displaced using an injection of 900 uM GalNAc returning the receptor surface to the free state. All data was processed using Scrubber2 (Biologic Software, Inc.) to zero, align, reference and correct for excluded volume effects. […]

As a reminder, the Kd is a measure of binding affinity in units of concentration.

Several values for one entry are separate records, joined by “and”; a condition that tells them apart may be missing. Equal values may be shown once.

Chain of Biotinylated ASGPR (ASGPr H1 wild type) (P07306 161-278): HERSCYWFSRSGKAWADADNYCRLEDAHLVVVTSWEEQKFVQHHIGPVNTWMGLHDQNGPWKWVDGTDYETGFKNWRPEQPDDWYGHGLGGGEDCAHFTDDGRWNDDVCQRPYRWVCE

Consider `[N-]=[N+]=N[C@H]1[C@H]2OC[C@](CO)(O2)[C@H](O)[C@@H]1O` [Compound 1, (1S,2R,3R,4R,5S)-4-azido-1-(hydroxymethyl)-6,8-dioxabicyclo[3.2.1]octane-2,3-diol], for which the Kd was found to be 9 µM. This lies in the single-digit micromolar range.

Regarding `CC(=O)N[C@H]1[C@H]2OC[C@](CO)(O2)[C@H](O)[C@@H]1O` [Compound 3, N-((1S,2R,3R,4R,5S)-2,3-dihydroxy-1-(hydroxymethyl)-6,8-dioxabicyclo[3.2.1]octan-4-yl)acetamide], the Kd is 7.18 µM.

Regarding `CCOC[C@@]12CO[C@@H](O1)[C@H](NC(C)=O)[C@@H](O)[C@H]2O` [Compound 17, N-[(1S,2R,3R,4R,5S)-1-(ethoxymethyl)-2,3-dihydroxy-6,8-dioxabicyclo[3.2.1]oct-4-yl]acetamide], the Kd is 5.3 µM and 3.4 µM and 2.6 µM.

With `CCCOC[C@@]12CO[C@@H](O1)[C@H](NC(C)=O)[C@@H](O)[C@H]2O` [Compound 18, N-[(1S,2R,3R,4R,5S)-2,3-dihydroxy-1-(propoxymethyl)-6,8-dioxabicyclo[3.2.1]oct-4-yl]acetamide], the Kd is 2.8 µM and 3.8 µM and 3.1 µM and 2.3 µM.

In the case of `CCCCOC[C@@]12CO[C@@H](O1)[C@H](NC(C)=O)[C@@H](O)[C@H]2O` [Compound 19, N-[(1S,2R,3R,4R,5S)-1-(butoxymethyl)-2,3-dihydroxy-6,8-dioxabicyclo[3.2.1]oct-4-yl]acetamide], the Kd was 3.3 µM and 3.2 µM and 7.7 µM.

Take `CCCCCOC[C@@]12CO[C@@H](O1)[C@H](NC(C)=O)[C@@H](O)[C@H]2O` [Compound 20, N-{(1S,2R,3R,4R,5S)-2,3-dihydroxy-1-[(pentyloxy)methyl]-6,8-dioxabicyclo[3.2.1]oct-4-yl}acetamide]: the Kd was 2.18 µM and 3.8 µM and 4.2 µM.

With `CCCCCCOC[C@@]12CO[C@@H](O1)[C@H](NC(C)=O)[C@@H](O)[C@H]2O` [Compound 21, N-{(1S,2R,3R,4R,5S)-1-[(hexyloxy)methyl]-2,3-dihydroxy-6,8-dioxabicyclo[3.2.1]oct-4-yl}acetamide], the Kd is 3.4 µM and 1.8 µM.

For `COCCOCCOCCOCCOC[C@@]12CO[C@@H](O1)[C@H](NC(C)=O)[C@@H](O)[C@H]2O` [Compound 22, N-[(1S,2R,3R,4R,5S)-2,3-dihydroxy-1-(2,5,8,11,14-pentaoxapentadec-1-yl)-6,8-dioxabicyclo[3.2.1]oct-4-yl]acetamide], the equilibrium dissociation constant (Kd) is 5.5 µM and 7.2 µM and 6.7 µM.

On to `O=C(N[C@H]1[C@H]2OC[C@](CO)(O2)[C@H](O)[C@@H]1O)C(F)(F)F` [Compound 24, N-[(1S,2R,3R,4R,5S)-2,3-dihydroxy-1-(hydroxymethyl)-6,8-dioxabicyclo[3.2.1]oct-4-yl]-2,2,2-trifluoroacetamide], for which the Kd was 1.1 µM and 2 µM and 2.3 µM and 1.4 µM (2×) and 700 nM and 800 nM and 1.6 µM.

Regarding `CCC(=O)N[C@H]1[C@H]2OC[C@](CO)(O2)[C@H](O)[C@@H]1O` [Compound 25, N-[(1S,2R,3R,4R,5S)-2,3-dihydroxy-1-(hydroxymethyl)-6,8-dioxabicyclo[3.2.1]oct-4-yl]propanamide], the Kd is 2.2 µM and 3 µM and 2.7 µM and 3.2 µM and 4.3 µM.

As to `CS(=O)(=O)N[C@H]1[C@H]2OC[C@](CO)(O2)[C@H](O)[C@@H]1O` [Compound 26, N-[(1S,2R,3R,4R,5S)-2,3-dihydroxy-1-(hydroxymethyl)-6,8-dioxabicyclo[3.2.1]oct-4-yl]methanesulfonamide], the Kd was 60 µM and 96 µM and 140 µM and 110 µM and 149 µM and 117 µM.

As to `O=C(N[C@H]1[C@H]2OC[C@](CO)(O2)[C@H](O)[C@@H]1O)C(F)F` [Compound 27, N-[(1S,2R,3R,4R,5S)-2,3-dihydroxy-1-(hydroxymethyl)-6,8-dioxabicyclo[3.2.1]oct-4-yl]-2,2-difluoroacetamide], the Kd is 0.7 µM and 1.9 µM and 1.2 µM and 1 µM and 1.5 µM and 0.5 µM.

Consider `O=C(CC(F)(F)F)N[C@H]1[C@H]2OC[C@](CO)(O2)[C@H](O)[C@@H]1O` [Compound 28, N-[(1S,2R,3R,4R,5S)-2,3-dihydroxy-1-(hydroxymethyl)-6,8-dioxabicyclo[3.2.1]oct-4-yl]-3,3,3-trifluoropropanamide], for which the Kd is 1.2 µM and 1.8 µM and 2.1 µM and 1.4 µM and 2.4 µM and 2.9 µM.

For `CC(=O)N(C)[C@H]1[C@H]2OC[C@](CO)(O2)[C@H](O)[C@@H]1O` [Compound 29, N-[(1S,2R,3R,4R,5S)-2,3-dihydroxy-1-(hydroxymethyl)-6,8-dioxabicyclo[3.2.1]oct-4-yl]-N-methylacetamide], the Kd is 6.9 µM and 11.6 µM and 8.8 µM and 15.9 µM and 11.7 µM and 6.4 µM.

In the case of `CN([C@H]1[C@H]2OC[C@](CO)(O2)[C@H](O)[C@@H]1O)S(C)(=O)=O` [Compound 30, N-[(1S,2R,3R,4R,5S)-2,3-dihydroxy-1-(hydroxymethyl)-6,8-dioxabicyclo[3.2.1]oct-4-yl]-N-methylmethanesulfonamide], the dissociation constant (Kd) was 110 µM and 83 µM and 210 µM and 240 µM and 132 µM and 192 µM.

For `CN(C(=O)OC(C)(C)C)[C@H]1[C@H]2OC[C@](CO)(O2)[C@H](O)[C@@H]1O` [Compound 31, tert-butyl [(1S,2R,3R,4R,5S)-2,3-dihydroxy-1-(hydroxymethyl)-6,8-dioxabicyclo[3.2.1]oct-4-yl]methylcarbamate], the Kd was 14 µM and 10.6 µM and 15.6 µM and 17.3 µM.

For the molecule `CO[C@H]1OC(CO)(CO)[C@H](O)[C@H](O)[C@H]1NC(C)=O` [II-b], the Kd is 199 µM and 240 µM and 260 µM and 300 µM.
